In brackets after ≈: the same amount, converted by molar mass.

Data set [1] can be described thus: Pharmacokinetics (tmax) after intravenous and nebulizer inhalation administration, dog. Type of data set: in vivo. Conditions: for Tmax at 14 day / Tmax: blood; for Tmax at 14 day: multiple dose (14 day). The procedure: (§1) Two animal species, rat and dog, are administered the formulation in a 14 day multiple dose inhalation study with a nebulizer. Results from the pharmacokinetic portion of the study indicate comparability between tmax values found for intravenous and inhaled delivery.

Data set [2] is described as follows: Pharmacokinetics (tmax) after intravenous and nebulizer inhalation administration, rat. Type of data set: in vivo. Conditions: blood; for Tmax: single dose; for Tmax at 14 day: multiple dose (14 day). The procedure:
as §1

For data set [3] the following is noted: cited from earlier work.

As usually defined, the Tmax is the time at which the peak concentration occurs. For `CCCCCc1cc(O)c2c(c1)OC(C)(C)[C@@H]1CCC(C)=C[C@@H]21`, the App. calc. tmax in data set [1] (IV, 1 mg/kg, single dose, tmax minus duration of exposure) is 1.9 min. The time of peak concentration (Tmax) at 14 day in data set [1] (inhaled or intranasal, 2 mg/kg, inhalation, 2 mg/kg, 8 minutes exposure, read-out: Average tmax (converted)) is 10.2 min; in data set [1] (inhaled or intranasal, 2 mg/kg, inhalation, 2 mg/kg, 8 minutes exposure, tmax minus duration of exposure, read-out: App. calc. tmax (converted)) it was 2.2 min; in data set [1] (inhaled or intranasal, 5 mg/kg, inhalation, 5 mg/kg, 20 minutes exposure, read-out: Average tmax (converted)), 22.2 min; in data set [1] (inhaled or intranasal, 5 mg/kg, inhalation, 5 mg/kg, 20 minutes exposure, tmax minus duration of exposure, read-out: App. calc. tmax (converted)), 2.2 min; in data set [1] (inhaled or intranasal, 15 mg/kg, inhalation, 15 mg/kg, 60 minutes exposure, read-out: Average tmax (converted)), 66 min; in data set [1] (inhaled or intranasal, 15 mg/kg, inhalation, 15 mg/kg, 60 minutes exposure, tmax minus duration of exposure, read-out: App. calc. tmax (converted)) it was 6 min. The Tmax at 14 day in data set [2] (inhaled or intranasal, 2 mg/kg, inhalation, 2 mg/kg, 5 minutes exposure, read-out: Average tmax (converted)) was 6 min; in data set [2] (inhaled or intranasal, 2 mg/kg, inhalation, 2 mg/kg, 5 minutes exposure, tmax minus duration of exposure, read-out: App. calc. tmax (converted)), 1 min; in data set [2] (inhaled or intranasal, 5 mg/kg, inhalation, 5 mg/kg, 15 minutes exposure, read-out: Average tmax (converted)), 17.4 min; in data set [2] (inhaled or intranasal, 5 mg/kg, inhalation, 5 mg/kg, 15 minutes exposure, tmax minus duration of exposure, read-out: App. calc. tmax (converted)), 2.4 min; in data set [2] (inhaled or intranasal, 15 mg/kg, inhalation, 15 mg/kg, 45 minutes exposure, read-out: Average tmax (converted)), 46.2 min; in data set [2] (inhaled or intranasal, 15 mg/kg, inhalation, 15 mg/kg, 45 minutes exposure, tmax minus duration of exposure, read-out: App. calc. tmax (converted)), 1.2 min. Also, the time to peak (Tmax) was 15.6 min in data set [1] (inhaled or intranasal, 2 mg/kg, inhalation, 2 mg/kg, 8 minutes exposure, single dose, read-out: Average tmax (converted)); 7.6 min in data set [1] (inhaled or intranasal, 2 mg/kg, inhalation, 2 mg/kg, 8 minutes exposure, single dose, tmax minus duration of exposure, read-out: App. calc. tmax (converted)); 1.8 min in data set [1] (iv, 1 mg/kg, IV, 1 mg/kg, single dose, read-out: Average tmax (converted)); 1.8 min in data set [1] (iv, 1 mg/kg, IV, 1 mg/kg, single dose, tmax minus duration of exposure, read-out: App. calc. tmax (converted)); 5.7 min in data set [2] (inhaled or intranasal, 0.5 mg/kg, inhalation, 0.5 mg/kg, 1.25 minutes exposure, read-out: Average tmax (converted)); 4.45 min in data set [2] (inhaled or intranasal, 0.5 mg/kg, inhalation, 0.5 mg/kg, 1.25 minutes exposure, tmax minus duration of exposure, read-out: App. calc. tmax (converted)). The Tmax was 33.3 min in data set [2] (inhaled or intranasal, 4.6 mg/kg, inhalation, 4.6 mg/kg, 15 minutes exposure, read-out: Average tmax (converted)); 18.3 min in data set [2] (inhaled or intranasal, 4.6 mg/kg, inhalation, 4.6 mg/kg, 15 minutes exposure, tmax minus duration of exposure, read-out: App. calc. tmax (converted)); 2.1 min in data set [2] (iv, 2 mg/kg, IV, 2 mg/kg, read-out: Average tmax (converted)); 2.1 min in data set [2] (iv, 2 mg/kg, IV, 2 mg/kg, tmax minus duration of exposure, read-out: App. calc. tmax (converted)). In addition, the solubility in water in data set [3] was 3000 µg/mL (≈ 9.54 mM).

The values above are taken from patent publication US6747058B1.
